Measurements from patent US10301295B2, “Herbicidal compounds” (Syngenta Participations AG, priority 2014, dated 2019).
Read-outs that look alike come from different tables or passages of the source.

Tests used:
Experiment in all cases: Glasshouse assay for herbicidal activity, pre-/post-emergence (percentage phytotoxicity)
Type in all cases: in vivo
[1] = tested on: Echinochloa crus-galli (ECHCG); conditions: Echinochloa crus-galli, Rate 250 g/ha, 100%=total damage, 0%=no damage
Method: (§1) Seeds of a variety of monocotyledonous and dicotyledonous test plants are sown in standard soil in pots. The plants are cultivated for one day (for pre-emergence) or for about 12 days (for post-emergence) under controlled conditions in a glasshouse (warm climate species at 24/18° C., cool climate species at 20/16° C., both at day/night; 16 hours light; 65% humidity). The test plants are then grown on, in a glasshouse (greenhouse) under controlled conditions (warm climate species at 24/18° C., cool climate species at 20/16° C., both at day/night; 16 hours light; 65% humidity) and are watered twice daily. 15 days after application of the test herbicide (15DAA) (for post-emergence), and 20 days after application of the test herbicide (20DAA) (for pre-emergence), the test plants are evaluated visually, and an assessed percentage phytotoxicity score is given for each herbicidal application on each plant species (with 100%=total damage to plant; 0%=no damage to plant). The plant species tested are as follows: Alopecurus myosuroides (ALOMY), Avena fatua (AVEFA), Lolium perenne (LOLPE), Echinochloa crus-galli (ECHCG).

[2] = tested on: Alopecurus myosuroides (ALOMY); conditions: Alopecurus myosuroides, Rate 250 g/ha, 100%=total damage, 0%=no damage
Method: as §1

Avena fatua (AVEFA) = conditions: Avena fatua, Rate 250 g/ha, 100%=total damage, 0%=no damage
Method: as §1

Lolium perenne (LOLPE) = conditions: Lolium perenne, Rate 250 g/ha, 100%=total damage, 0%=no damage
Method: as §1

[3] = post-emergence, 360 h, post-emergence, visual assessment 15 DAA, read-out: Post-emergence herbicidal activity (percentage phytotoxicity), ECHCG POST
[4] = pre-emergence, 480 h, pre-emergence, visual assessment 20 DAA, read-out: Pre-emergence herbicidal activity (percentage phytotoxicity), ECHCG PRE
[5] = 360 h, post-emergence, visual assessment 15 DAA, read-out: Post-emergence herbicidal activity (percentage phytotoxicity), ALOMY POST
[6] = 480 h, pre-emergence, visual assessment 20 DAA, read-out: Pre-emergence herbicidal activity (percentage phytotoxicity), ALOMY PRE
[7] = post-emergence, 360 h, post-emergence, visual assessment 15 DAA, read-out: Post-emergence herbicidal activity (percentage phytotoxicity), AVEFA POST
[8] = pre-emergence, 480 h, pre-emergence, visual assessment 20 DAA, read-out: Pre-emergence herbicidal activity (percentage phytotoxicity), AVEFA PRE
[9] = post-emergence, 360 h, post-emergence, visual assessment 15 DAA, read-out: Post-emergence herbicidal activity (percentage phytotoxicity), LOLPE POST
[10] = pre-emergence, 480 h, pre-emergence, visual assessment 20 DAA, read-out: Pre-emergence herbicidal activity (percentage phytotoxicity), LOLPE PRE

Compound | pest or weed control at 250 g/ha [1, 3] [%] | pest or weed control at 250 g/ha [1, 4] [%] | pest or weed control at 250 g/ha [2, 5] [%] | pest or weed control at 250 g/ha [2, 6] [%] | pest or weed control at 250 g/ha (Avena fatua (AVEFA); [7]) [%] | pest or weed control at 250 g/ha (Avena fatua (AVEFA); [8]) [%] | pest or weed control at 250 g/ha (Lolium perenne (LOLPE); [9]) [%] | pest or weed control at 250 g/ha (Lolium perenne (LOLPE); [10]) [%]
Cc1cc(C)c(C2C(=O)CC(CCNc3ncc(Br)cn3)C2=O)c(C)c1 (stereo not shown) [Compound A126, 4-[2-[(5-bromopyrimidin-2-yl)amino]ethyl]-2-(2,4,6-trimethylphenyl)cyclopentane-1,3-dione] | 90 | 80 | 90 | 80 | 90 | 100 | 90 | 90
Cc1cc(C)c(C2C(=O)CC(CCNc3ccc([N+](=O)[O-])cn3)C2=O)c(C)c1 (stereo not shown) [Compound A96] | 100 | 100 | 90 | 80 | 100 | 90 | 100 | 100
Cc1cc(C)c(C2C(=O)CC(CCNc3ccc(C#N)cc3C(F)(F)F)C2=O)c(C)c1 (stereo not shown) [Compound A106] | 90 | 90 | 90 | 70 | 90 | 40 | 90 | 60
Cc1cc(C)c(C2C(=O)CC(CCN(C)C(=O)Nc3ccccn3)C2=O)c(C)c1 (stereo not shown) [Compound A101, 1-[2-[2,4-dioxo-3-(2,4,6-trimethylphenyl)cyclopentyl]ethyl]-1-methyl-3-(2-pyridyl)urea] | 70 | 10 | 70 | 40 | 70 | 0 | 40 | 30
Cc1cc(-c2ncc(Cl)cc2F)cc(C)c1C1C(=O)CC(CCNC(=O)C2=NOC(C)(C)C2)C1=O (stereo not shown) [Compound A117] | 100 | 80 | 100 | 90 | 100 | 80 | 100 | 80
Cc1cc(-c2ccc(C#N)cn2)cc(C)c1C1C(=O)CC(CCNC(=O)C2=NOC(C)(C)C2)C1=O (stereo not shown) [Compound A119] | 100 | 90 | 90 | 90 | 100 | 80 | 100 | 80
Cc1cc(C)c(C2C(=O)C[C@@H](CCNC(=O)C3=NOC(C)(C)C3)C2=O)c(C)c1 (stereo partly shown) [Compound A102] | 100 | 100 | 100 | 100 | 100 | 90 | 100 | 100
Cc1cc(C)c(C2C(=O)CC(CCNc3ccc([N+](=O)[O-])cc3C(F)(F)F)C2=O)c(C)c1 (stereo not shown) [Compound A104] | 70 | 90 | 90 | 60 | 80 | 70 | 90 | 80
